Several values for one entry are separate records, joined by “and”; a condition that tells them apart may be missing. Equal entries are not always repeated. Where two headings read alike, the source gives them in different places. Marks after values point to notes of the source that are not given here.
Columns and labels:
P1 transporter = format: cell-based, Trypanosoma brucei; settings: mean ± SEM, n = 3
Experimental: Non-specific association of radiolabel with the cell pellet was determined using an identical incubation in the presence of saturating (1 mM) unlabelled adenosine.

[1] = test system: T. b. rhodesiense STIB-900; assay: microbe, parasite or virus in culture; format: cell-based, Trypanosoma brucei rhodesiense; settings: Trypanosoma brucei, RHODESIENSE
Experimental: (§1) Drug susceptibility tests with Lister 427WT, TbAT1-KO[48], B48[26] and ISMR1[27] were performed using an assay based on the viability indicator dye resazurin in 96-well plates, each well containing 2 × 10^4 cells. The plates were incubated for 48 h with a doubling dilution series of the test compounds in HMI-9/fetal bovine serum at 37 °C/5% CO2 (23 dilutions starting at 100 µM, except for the pentamidine control (50 µM)), after which resazurin (20 µL of 125 µg mL^−1 resazurin sodium salt solution was added to each well (containing 200 µL of cells and test compound)) was added to each well and the plates incubated for another 24 h. Fluorescence was determined using a FLUOstar Optima (BMG Labtech, Durham, NC) and the results fitted to a sigmoid curve with variable slope using Prism 5.0 or Prism 7.04 (GraphPad, San Diego, CA).
(§2) Susceptibility assays with T. brucei Squib 427[49] or T. b. rhodesiense STIB-900[50] were performed under similar conditions as above, but using 10 concentrations of a 4-fold compound dilution series starting at 64 µM. Trypanosoma brucei Squib 427 was seeded at 1.5 × 10^4 parasites/well and T. b. rhodesiense at 4 × 10^3 parasites per well, followed by the addition of resazurin (final concentration of 10 µg mL^−1) after 24 h (T. brucei) or 6 h (T. b. rhodesiense).

[2] = test system: T. b. brucei Lister 427WT; assay: Drug susceptibility test (resazurin), Lister 427WT; format: cell-based, Trypanosoma brucei brucei
Experimental: as §1

[3] = test system: B48: pentamidine, diminazene and melaminophenyl arsenical resistant T. brucei line; assay: microbe, parasite or virus in culture; format: cell-based, Trypanosoma brucei brucei
T. brucei Squib 427 = assay: microbe, parasite or virus in culture; format: cell-based, Trypanosoma brucei brucei
Experimental: as §1, §2

[4] = test system: TbAT1-KO: T. brucei cell line lacking the TbAT1(P2) transporter gene; assay: microbe, parasite or virus in culture; format: cell-based, Trypanosoma brucei brucei
Experimental: as §1

[5] = test system: ISMR1: isometamidium-resistant T. brucei cell line; assay: microbe, parasite or virus in culture; format: cell-based, Trypanosoma brucei brucei
Experimental: as §1

[6] = Cytotoxicity on MRC-5 fibroblasts (resazurin); format: cell-based, human; settings: human, MRC-5SV2 human embryonic lung fibroblasts
Experimental: Cytotoxicity assays were performed on MRC-5SV2 (Sigma-Aldrich/ECACC, catalogue number 84100401) human embryonic lung fibroblasts, which were cultured in minimum essential medium with Earle’s salt medium, supplemented with L-glutamine, NaHCO3 and 5% inactivated foetal calf serum. All cultures and assays were conducted at 37 °C with 5% CO2. Ten microliters of the aqueous compound dilutions were added to 190 µL of MRC-5SV2 (3 × 10^4 cells mL^−1). Cell growth was compared to untreated control wells (100% cell growth) and medium control wells (0% cell growth). After a 3-day incubation, cell viability was assessed fluorimetrically after the addition of 50 μL resazurin per well (final concentration of 10 µg mL^−1). After 4 h at 37 °C, fluorescence was measured (λex 550 nm, λem 590 nm). The results were expressed as percentage reduction in cell growth/viability compared to control wells and an EC50 was determined.

[7] = Metabolic stability, rat liver microsomes (phase I and II)
Experimental: (§3) Mouse, rat, and pooled human liver microsomes were purchased from a commercial source (Corning) and stored at -80 °C. NADPH generating system solutions A and B and UGT reaction mix solutions A and B (Corning) were kept at -20°C. The test compound and the reference compounds diclofenac (MW […]
(§4) microsomal stability assay was carried out based on the BD Biosciences Guidelines for Use (TF000017 Rev1.0) with minor adaptations. Metabolic stability of the compounds was studied through the CYP450 superfamily (phase I metabolism) by fortification with reduced nicotinamide adenine dinucleotide phosphate (NADPH) and through uridine glucuronosyl-transferase (UGT) enzymes (phase II metabolism) by fortification with uridine diphosphate glucuronic acid (UDPGA). For the CYP450 and other NADPH dependent enzymes, both compounds were incubated at 5 µM together with 0.5 mg mL-1 liver microsomes in potassium phosphate buffer in a reaction started by the addition of 1 mM NADPH […]
(§5) At these time points, 20 µL was withdrawn from the reaction mixture and 80 µL cold acetonitrile (ACN) containing the internal standard tolbutamide, was added to inactivate the enzymes and precipitate the proteins. The mixture was vortexed for 30 s and centrifuged at 4 °C for 5 min at 15,000 rpm. The supernatant was stored at -80°C until analysis. For the UGT enzymes, both compounds were incubated at 5 µM together with 0.5 mg mL-1 liver microsomes in a reaction started by the addition of 2 mM UDPGA cofactor. The corresponding loss of parent compound was determined using liquid chromatography (UPLC) (Waters AquityTM) coupled with tandem quadrupole mass spectrometry (MS²) (Waters XevoTM), equipped with an electrospray ionization (ESI) interface and operated in multiple reaction monitoring (MRM) mode. […]

[8] = Metabolic stability, pooled human liver microsomes (phase I and II)
Experimental: as §3, §4, §5

[9] = Metabolic stability, mouse liver microsomes (phase I and II)
Experimental: as §3, §4, §5

T. brucei ADKIN = molecular target: T1, T. brucei ADKIN (Trypanosoma brucei brucei, UniProt Q584S6); assay: ADKIN assay (phosphorylation by purified recombinant enzyme, HPLC); format: biochemical
T1 sequence (Q584S6 1-345): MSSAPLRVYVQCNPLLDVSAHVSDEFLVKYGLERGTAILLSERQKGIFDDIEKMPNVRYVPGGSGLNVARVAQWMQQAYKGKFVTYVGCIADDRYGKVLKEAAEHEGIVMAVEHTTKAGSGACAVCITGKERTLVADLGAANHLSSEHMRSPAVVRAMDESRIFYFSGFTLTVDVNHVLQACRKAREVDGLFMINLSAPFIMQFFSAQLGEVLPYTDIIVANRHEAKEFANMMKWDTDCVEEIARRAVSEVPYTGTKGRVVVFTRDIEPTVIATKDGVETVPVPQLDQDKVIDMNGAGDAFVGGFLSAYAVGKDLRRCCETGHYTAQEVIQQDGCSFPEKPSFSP
Experimental: The T. brucei ADKIN enzyme was diluted in a buffer containing 0.05% (v/v) Tween-20, 50 mM KCl, 0.1 mM dithiothreitol, and 50 mM Tris-HCl, pH 7.5 (dilution buffer), prior to use in the assay. The final assay mixture contained 12.5 ng T. brucei ADKIN, a range between 50 and 1000 µM of nucleoside 9 (or 1000 µM deoxyadenosine in the control reaction), 100 mM KCl, 10 mM MgCl2, 0.5 mM ATP, 5 mM potassium phosphate and 50 mM Tris-HCl, pH 7.5. The assay was incubated at 37 °C for 30 min, and subsequently heated for 2 min at 100 °C to inactivate the enzyme, diluted with 2 volumes of water, centrifuged through a Nanosep 3k Omega filter and mixed 1:1:2 with water and mobile phase. The HPLC analysis was performed on a 2.1 × 150 mm ACE Excel C18 column using a mobile phase composition 4A:76B:20C (see nucleotide pool analysis, Supplementary Information for details). Using these conditions, consecutive samples could be loaded (Supplementary Fig. 12). After 4–5 samples, the column was washed with high percent A (80A:20C) to remove bound ADP and ATP before re-equilibrating the column to original conditions.

[10] = resistance factor vs Lister 427WT

Nc1ncnc2c1ncn2[C@@H]1O[C@H](CO)[C@@H](O)[C@H]1O [Adenosine, reference compound]
Km (P1 transporter): 0.12 ± 0.02 µM

Nc1ncnc2c1ccn2[C@H]1C[C@H](O)[C@@H](CO)O1 [Compound 11, 2′-Deoxy-TUB]
EC50 ([1]; Alamar blue cell viability assay, mean and SEM, read-out: T. b. rhodesiense EC50): > 64 µM
EC50 ([1]; source data, read-out: T. brucei rhodesiense EC50, single measurements): > 64 µM
EC50 ([2]; Trypanosoma brucei, mean and SEM, n = 3, read-out: Lister 427 EC50): 96.4 ± 13.8 µM
EC50 ([2]; Trypanosoma brucei, source data, read-out: s427 EC50, single determinations): 82.6 µM
EC50 ([2]; source data, read-out: s427 EC50, single determinations): 97.4 µM
EC50 ([3]; Trypanosoma brucei, mean and SEM, n = 3, read-out: B48 EC50): 41.8 ± 1.4 µM
EC50 ([3]; Trypanosoma brucei, source data, read-out: B48 EC50, single determinations): 40.3 µM
RF (B48) [3, 10]: 0.43**
EC50 ([3]; source data, read-out: B48 EC50, single determinations): 43.2 µM and 40.8 µM
EC50 (T. brucei Squib 427; Trypanosoma brucei, Alamar blue cell viability assay, mean and SEM, read-out: T. b. brucei EC50): 48 ± 1 µM
EC50 (T. brucei Squib 427; Trypanosoma brucei, source data, read-out: T. brucei brucei EC50, Average): 48.5 µM
EC50 (T. brucei Squib 427; Trypanosoma brucei, source data, read-out: T. brucei brucei EC50, single measurements): 49.9 µM
SI (MRC/T.b. brucei) (T. brucei Squib 427; selectivity index): 1.3
EC50 (T. brucei Squib 427; source data, read-out: T. brucei brucei EC50, single measurements): 47.2 µM
EC50 ([4]; Trypanosoma brucei, read-out: TbAT1-KO EC50, mean and SEM, n = 3): 43.7 ± 2.2 µM
EC50 ([4]; Trypanosoma brucei, read-out: TbAT1-KO EC50, single determinations, source data): 41.5 µM
EC50 ([4]; read-out: TbAT1-KO EC50, single determinations, source data): 45.9 µM and 46.9 µM
RF (TbAT1-KO) ([4]; resistance factor: ratio of EC50 of resistant and Lister 427WT): 0.45**
EC50 ([5]; Trypanosoma brucei, mean and SEM, n = 3, read-out: ISMR1 EC50): 77.8 ± 1.7 µM
EC50 ([5]; Trypanosoma brucei, source data, read-out: ISMR1 EC50, single determinations): 77.3 µM
RF (ISMR1) [5, 10]: 0.81
EC50 ([5]; source data, read-out: ISMR1 EC50, single determinations): 81 µM and 75.1 µM
EC50 at 3 day ([6]; cytotoxicity in human MRC-5 fibroblasts, mean and SEM, read-out: MRC-5 EC50): > 64 µM
EC50 at 3 day ([6]; source data, read-out: MRC-5 EC50, single measurements): > 64 µM

OC(Cn1cncn1)(Cn1cncn1)c1ccc(F)cc1F [Fluco, fluconazole, reference compound]
% parent compound remaining ([7]; CYP - NADPH, 15 min): 110%
% parent compound remaining ([7]; CYP - NADPH, 30 min): 104%
% parent compound remaining ([7]; CYP - NADPH, 60 min): 96%
% parent compound remaining ([7]; UGT Enzymes, 15 min): 111%
% parent compound remaining ([7]; UGT Enzymes, 30 min): 105%
% parent compound remaining ([7]; UGT Enzymes, 60 min): 112%
% parent compound remaining ([8]; CYP - NADPH, 15 min): 110%
% parent compound remaining ([8]; CYP - NADPH, 30 min): 80%
% parent compound remaining ([8]; CYP - NADPH, 60 min): 103%
% parent compound remaining ([8]; UGT Enzymes, 15 min): 103%
% parent compound remaining ([8]; UGT Enzymes, 30 min): 116%
% parent compound remaining ([8]; UGT Enzymes, 60 min): 106%
% parent compound remaining ([9]; CYP - NADPH, 15 min): 111±12%
% parent compound remaining ([9]; CYP - NADPH, 30 min): 93±19%
% parent compound remaining ([9]; CYP - NADPH, 60 min): 100±12%
% parent compound remaining ([9]; UGT Enzymes, 15 min): 99±19%
% parent compound remaining ([9]; UGT Enzymes, 30 min): 104±3%
% parent compound remaining ([9]; UGT Enzymes, 60 min): 100±6%

Nc1ncnc2c1ncn2[C@H]1C[C@H](O)[C@@H](CO)O1 [dAdo, 2′-deoxyadenosine, reference compound]
product concentration (Conc.9-MP) (T. brucei ADKIN; TbAK control reaction, [dAdo] 1000 µM): 34.4568 and 29.4118 and 31.8858
Act (U/mg) (T. brucei ADKIN; TbAK, substrate 1000 µM): 4.594 U/mg and 3.922 U/mg and 4.251 U/mg

— article PMC6895180 (Nature Communications, 2019)
